Values quoted from earlier work in PMC8513935.

How the values were obtained:
[1] = derived by the authors as gas->solvent minus gas->water (a hypothetical dry solvent; the ESI), not a two-phase measurement
[2] = log P octanol/water from commercial databases, averaged (the ESI); details: Octanol (wet), 25 C
[3] = experimental, compiled by the authors from the literature (the ESI cites the sources)

log K of transfer, water to solvent ([1]; Hexadecane, 25 C) | log K of transfer, water to solvent ([1]; Propan-2-ol, 25 C) | log K of transfer, water to solvent [2] | log K of transfer, gas to solvent ([3]; Hexadecane, 25 C) | log K of transfer, gas to solvent ([3]; Propan-2-ol, 25 C) | log K of transfer, gas to solvent ([3]; Water, 25 C) | log K of transfer, water to solvent ([1]; Butan-1-ol, 25 C) | log K of transfer, water to solvent ([1]; Hexan-1-ol, 25 C) | log K of transfer, water to solvent ([1]; Octan-1-ol(dry), 25 C) | log K of transfer, gas to solvent ([3]; Butan-1-ol, 25 C) | log K of transfer, gas to solvent ([3]; Hexan-1-ol, 25 C) | log K of transfer, gas to solvent ([3]; Octan-1-ol, 25 C) | Structure (SMILES) | log K of transfer, water to solvent ([1]; Decan-1-ol, 25 C) | log K of transfer, gas to solvent ([3]; Decan-1-ol, 25 C) | further results
2.05 log10 K | 2.05 log10 K | 2.03 log10 K | 2.95 log10 K | 2.95 log10 K | 0.9 log10 K | 2.13 log10 K | 2.12 log10 K | 2.07 log10 K | 3.03 log10 K | 3.02 log10 K | 2.97 log10 K | CCCOCCC | – | – | log K of transfer, water to solvent ([1]; 2-Methylpropan-1-ol, 25 C): 2.16 log10 K; log K of transfer, water to solvent ([1]; 2-Methylpropan-2-ol, 25 C): 2.13 log10 K; log K of transfer, water to solvent ([1]; Butan-2-ol, 25 C): 2.14 log10 K; log K of transfer, water to solvent ([1]; Butanone, 25 C): 2.3 log10 K; log K of transfer, water to solvent ([1]; CCl4, 25 C): 2.64 log10 K; log K of transfer, water to solvent ([1]; Dichloromethane, 25 C): 2.78 log10 K; log K of transfer, water to solvent ([1]; Methanol, 25 C): 1.99 log10 K; log K of transfer, water to solvent ([1]; Perfluoroalkane, 25 C): 1.18 log10 K; log K of transfer, gas to solvent ([3]; 2-Methylpropan-1-ol, 25 C): 3.06 log10 K; log K of transfer, gas to solvent ([3]; 2-Methylpropan-2-ol, 25 C): 3.03 log10 K; log K of transfer, gas to solvent ([3]; Butan-2-ol, 25 C): 3.04 log10 K; log K of transfer, gas to solvent ([3]; Butanone, 25 C): 3.2 log10 K; log K of transfer, gas to solvent ([3]; CCl4, 25 C): 3.54 log10 K; log K of transfer, gas to solvent ([3]; Dichloromethane, 25 C): 3.68 log10 K; log K of transfer, gas to solvent ([3]; Methanol, 25 C): 2.89 log10 K; log K of transfer, gas to solvent ([3]; Perfluoroalkane, 25 C): 2.08 log10 K
6.63 log10 K | 8.03 log10 K | 7.32 log10 K | 8.65 log10 K | 10 log10 K | 2.02 log10 K | – | 7.92 log10 K | 7.88 log10 K | – | 9.93 log10 K | 9.9 log10 K | CCCCCCCCCCCCCCCCO | 7.84 log10 K | 9.86 log10 K | log K of transfer, water to solvent ([1]; Di-n-butyl ether, 25 C): 7.61 log10 K; log K of transfer, water to solvent ([1]; Diethyl Ether, 25 C): 7.89 log10 K; log K of transfer, gas to solvent ([3]; Di-n-butyl ether, 25 C): 9.63 log10 K; log K of transfer, gas to solvent ([3]; Diethyl Ether, 25 C): 9.91 log10 K
4.42 log10 K | – | 3.6 log10 K | 2.58 log10 K | – | -1.84 log10 K | 4.18 log10 K | – | – | 2.34 log10 K | – | – | CCC(C)CC | – | – | log K of transfer, water to solvent ([1]; Pentan-1-ol, 25 C): 4.28 log10 K; log K of transfer, gas to solvent ([3]; Pentan-1-ol, 25 C): 2.44 log10 K

Structure (SMILES) | log K of transfer, water to solvent ([1]; Hexadecane, 25 C) | log K of transfer, water to solvent ([1]; Propan-2-ol, 25 C) | log K of transfer, water to solvent [2] | log K of transfer, gas to solvent ([3]; Hexadecane, 25 C) | log K of transfer, gas to solvent ([3]; Propan-2-ol, 25 C) | log K of transfer, gas to solvent ([3]; Water, 25 C) | log K of transfer, water to solvent ([1]; Butan-1-ol, 25 C) | log K of transfer, water to solvent ([1]; Hexan-1-ol, 25 C) | log K of transfer, water to solvent ([1]; Octan-1-ol(dry), 25 C) | log K of transfer, gas to solvent ([3]; Butan-1-ol, 25 C) | log K of transfer, gas to solvent ([3]; Hexan-1-ol, 25 C) | log K of transfer, gas to solvent ([3]; Octan-1-ol, 25 C) | log K of transfer, water to solvent ([1]; Decan-1-ol, 25 C) | log K of transfer, gas to solvent ([3]; Decan-1-ol, 25 C) | further results
CCCCCCCCCCO | 2.94 log10 K | 4.49 log10 K | 4.12 log10 K | 5.61 log10 K | 7.16 log10 K | 2.67 log10 K | – | – | – | – | – | – | 4.36 log10 K | 7.03 log10 K | log K of transfer, water to solvent ([1]; Hexane, 25 C): 2.97 log10 K; log K of transfer, water to solvent ([1]; Propan-1-ol, 25 C): 4.46 log10 K; log K of transfer, gas to solvent ([3]; Hexane, 25 C): 5.64 log10 K; log K of transfer, gas to solvent ([3]; Propan-1-ol, 25 C): 7.13 log10 K
